Consider one compound from patent US9814699B2, “Chemical compounds” (Janssen Pharmaceuticals, Inc., priority 2009, dated 2017).

Experiment [1] has as its system HCV genotype 1a subgenomic replicon. Briefly: HCV replicon assay, genotype 1a subgenomic replicon (luciferase). It is filed as cell-based. Conditions: Hepatitis C virus; genotype 1a replicon stable cell line, luciferase activity measured 48 hours later; read-out: Replicon 1A pEC50 (converted). Summed up:
(§1)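 Stable Huh-type bicistronic firefly-luciferase replicon cells (1b ET line with E1202G/T1280I/K1846T; 1a line) exposed 48 h to compounds from 0.03 pM to 50 μM final, 0.5–1% DMSO. Luciferase inhibition normalised to controls. EC50 from 11-point curves with four-parameter logistic fit; cytotoxicity by CellTiter-Glo.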
(In general: In antiviral work, replicon cells carry a viral genome segment that copies itself.)

The subject of experiment [2] is HCV genotype 1b subgenomic replicon. Briefly: HCV replicon assay, genotype 1b subgenomic replicon (ET cell line, luciferase). In kind it is cell-based. Conditions: Hepatitis C virus; genotype 1b replicon ET cell line, luciferase activity measured 48 hours later; read-out: Replicon 1B pEC50 (converted). In a few lines: as §1

Take `COC(=O)N[C@H](C(=O)N1CCC[C@H]1c1ncc(-c2ccc(-c3ccc(-c4c[nH]c(C5CCC6(CCS(=O)(=O)CC6)N5C(=O)[C@@H](NC(=O)OC)C(C)C)n4)cc3)cc2)[nH]1)C(C)C` (stereo partly drawn) [Example 37, methyl [(1S)-2-methyl-1-({(2S)-2-[4-(4′-{2-[1-((2S)-3-methyl-2-{[(methyloxy)carbonyl]amino}butanoyl)-8,8-dioxido-8-thia-1-azaspiro[4.5]dec-2-yl]-1H-imidazol-4-yl}-4-biphenylyl)-1H-imidazol-2-yl]-1-pyrrolidinyl}carbonyl)propyl]carbamate]: the EC50 in experiment [1] is 12.6 nM; in experiment [2], 0.316 nM.
